Laboratory results as given in a melting point compilation (Tetko et al.).

melting point | SMILES
127 to 129 °C | Cc1onc(-c2c(F)cccc2Cl)c1C(N)=O
125 °C | O=C(NCCN=Cc1ccccn1)C(=O)NCc1ccccn1
137 °C | O=C(C1=NOC2C(=O)N(c3ccc(Cl)cc3)C(=O)C12)c1ccccc1 (centres undefined)
-47 °C | C=CC(=O)OCCOCC
236 °C | O=C1OC(c2ccc([N+](=O)[O-])cc2)=NC1=Cc1ccccc1
115 °C | O=C(c1ccc2ccccc2c1)c1noc(-c2cccc3ccccc23)c1S(=O)(=O)c1ccccc1
28 to 30 °C | NCc1cccc(-c2ccccc2)c1
230 to 232 °C | O=[N+]([O-])c1ccc(-n2cc([N+](=O)[O-])c(-c3ccccc3)n2)cc1
-64 °C | C=C(C)CCCCCCC
61 °C | CC(C)CCOC(=O)c1cc([N+](=O)[O-])cc([N+](=O)[O-])c1
48 to 52 °C | Cc1cncc(Cl)n1
153 °C | Nc1ccccc1-c1cc2ccccc2[nH]1
200 °C | Cc1cc(C)nc(NS(=O)(=O)c2ccc(N)cc2)n1
28 °C | CC(C)=CC(=O)C=C(C)C
210 °C | N#CC1=C(N)Oc2c(c(C(F)(F)F)nn2-c2ccccc2)C1c1ccc(Cl)cc1Cl (centres undefined)
82 °C | c1n[nH]c2c1CCCC2
304 °C | N#Cc1c(-c2ccc(F)cc2)c(C#N)c(=O)n(N)c1N
-45 °C | FC(F)(F)C(F)(F)C(F)(F)C(F)(F)C(F)(F)C(F)(F)I
35 to 44 °C | c1ccc(C2Cc3ccccc32)nc1 (centres undefined)
164 to 166 °C | COc1ccc(C(=O)O)cc1OC1CCCC1
165 °C | NNc1ncccc1[N+](=O)[O-]
108 °C | N#Cc1c(Cl)ccc([N+](=O)[O-])c1Cl
211 °C | COc1ccc(C2Nc3nc(C(F)(F)F)nn3C(N)=C2C#N)cc1 (centres undefined)
183 °C | O=Cc1ccc2c(c1)C(=O)c1c(Cl)c(Cl)c(Cl)c(Cl)c1C2=O

melting point | SMILES
78 °C | CCN(CC)c1cccc(O)c1
169 °C | N#C/C(=N/Nc1ccc(Br)cc1)c1nc(-c2ccccc2)cs1
36 °C | COc1cccc(-c2cccc(OC)c2)c1
121 to 122 °C | CC(C)[C@H](NC(=O)OCC1c2ccccc2-c2ccccc21)C(=O)Oc1c(F)c(F)c(F)c(F)c1F
92 °C | CNCCCC12CCC(c3ccccc31)c1ccccc12
45 °C | CC(=O)c1ccc(C2CC2Cl)cc1 (centres undefined)
112 °C | CCOC(=O)c1c(N)sc2c1CCN(Cc1ccccc1)C2
41 °C | c1ccc(C2OCCCO2)cc1
212 to 215 °C | O=C(O)C=Cc1cc([N+](=O)[O-])ccc1Sc1ccc(Cl)cc1
86 °C | Fc1cc(Br)c(Cl)c(Br)c1
109 °C | CC1(C)OCC(C2OC3OC(C)(C)OC3C2O)O1 (centres undefined)
-49.7 °C | C=Cc1ccc(CC)cc1
-35 °C | CCCCCC=CCC=CCCCCCCCC(=O)OC
43.5 °C | O=C(OC1CCCCC1)C(=O)OC1CCCCC1
55 to 57 °C | CN(C)CCOc1ccc(N)cc1
-65 °C | C=C(Cl)C#N
127 °C | CC1=C(C)C(=O)c2ccccc2C1=O
207 to 211 °C | O=c1[nH]c2ccc(S(=O)(=O)CCO)cc2o1
134 °C | COC(=O)Oc1ccccc1C(=O)O
147 to 149 °C | COC(=O)c1sc(-c2ccccc2)cc1N
90 to 92 °C | O=[N+]([O-])c1cccnc1Oc1ccccc1F
31 °C | O=S(=O)(Cl)c1ccc(C(F)(F)F)cc1
69 °C | C=CC(=O)ON1C(=O)CCC1=O
156 °C | O=C(O)c1ccc2c(c1)CCCC2

melting point | SMILES
-89 °C | C1=CCCC=C1
73 °C | Nc1cc(C(F)(F)F)ccn1
107 °C | Cc1cccc(NC(=O)C(C(F)(F)F)C(F)(F)F)n1
60 °C | O=C1CCC(=O)N1CCO
172 to 175 °C | NC(=O)NCc1ccc(F)cc1
149 °C | O=C(O)c1ccc(F)cc1[N+](=O)[O-]
69 °C | O=S(=O)(CCCl)c1ccc(F)cc1
119 to 120 °C | CN(C)C=C(C=O)c1ccccc1[N+](=O)[O-]
189 °C | Cc1ccc(NC(=O)C(C(F)(F)F)C(F)(F)F)cc1C
60 °C | COc1cc([N+](=O)[O-])ccc1N1CCCC1
139 to 140 °C | CC1(C)CC(=O)C(=NNc2ccccc2[N+](=O)[O-])C(=O)C1
180 °C | CN(C)c1ccc(C(c2ccc(N(C)C)cc2)c2ccc(N(C)C)cc2)cc1
138 °C | Cc1ccc2c(-c3ccccc3)nc(=O)n(C(C)C)c2c1
60 °C | COC(=O)CCC(C)C1CCC2C3C=CC4CCCCC4(C)C3CCC12C (centres undefined)
193 °C | CC1=Nc2ccccc2N=C(C)C1
133 °C | Cc1n[nH]cc1[N+](=O)[O-]
-69 °C | CC(C)SSC(C)C
167 °C | COC1=CC(=O)C(C#N)C(c2ccccc2)C1 (centres undefined)
220 °C | O=C(O)[C@@H]1CCCC[C@H]1C(=O)O (relative stereo)
245 °C | Nc1ncnc2c1ncn2Cc1c(F)cccc1Cl
60 °C | Cc1nc(-c2ccccc2)sc1Br
-40 °C | CC(O)CC(C)(C)O (centres undefined)
338 to 340 °C | O=c1n2ccccc2nc2nc3ccccc3n12
135 °C | O=C(O)c1cccc(S(=O)(=O)Cl)c1

melting point | SMILES
320 °C | Nc1nc(O)nc2[nH]ncc12
64 to 68 °C | NNc1cc(C(F)(F)F)ccc1Cl
65 to 66 °C | Cc1cc(C)c(CS)c(C)c1CS
110 °C | CC(=O)O[Si](OC(C)=O)(OC(C)=O)OC(C)=O
248 °C | Cc1cc(=O)oc2cc(OC3OC(CO)C(O)C(O)C3O)ccc12 (centres undefined)
173 to 174 °C | O=S(=O)(Cl)c1sc(-c2ccccc2)nc1-c1ccccc1
103 to 105 °C | Cc1cc(O)c(C(C)C)cc1SC#N
99 to 102 °C | Cc1cc(I)cc(C)c1O
105 to 106 °C | Brc1ccc(N2CCCC2)cc1
128 °C | CCOC(=O)c1sc(-c2ccc(N)cc2)nc1C
153 to 154 °C | Cc1cccc(-n2cc[nH]c2=S)c1
70 °C | CCOC(=O)C(C#N)=C(SC)SC
115 to 116 °C | O=C1c2ccccc2C(=O)C1(Cl)c1ccccc1
127 to 128 °C | Nc1cccnc1N1CCOCC1
-22.5 °C | CCCCCCCCOC(=O)CCCCCC
-35 °C | COc1cccc(F)c1
265 to 267 °C | CC12CCC(C(=CCC=C3C(=O)C4(C)CCC3C4(C)C)C1=O)C2(C)C
235 to 250 °C | COC(=O)C(C#N)=c1sc(=C(C#N)C(=O)OC)s1
54 to 58 °C | Cc1ccc(S(=O)(=O)CCO)cc1
> 300 °C | N=C(N)NCC(O)CC(O)(C(=O)O)C1OC(n2cc(CO)c(N)nc2=O)C=CC1NC(=O)C(N)CO (centres undefined)
230 °C | CCOC(=O)c1nn(-c2ccc(C)cc2)c(C)c1C(=O)c1noc(-c2ccc(Cl)cc2)c1S(=O)(=O)c1ccccc1
188 °C | O=C(Nc1ccccc1)c1cc([N+](=O)[O-])cc(S(=O)(=O)Nc2ccccc2)c1
50 to 53 °C | FC(F)(F)c1ccc(N2CCCNCC2)nc1
73 °C | CC1=Nc2ccccc2C1(C)C#N (centres undefined)

melting point | SMILES
94 °C | CCN1C(=O)NC(c2ccccc2)C1=O (centres undefined)
51 °C | Nc1ccc(C(F)(F)F)cc1I
76 °C | COc1ccc(COC(=O)NN)cc1
324 °C | O=C(O)c1cncc(C(=O)O)c1
280 °C | NC(=O)c1cccc(C(N)=O)c1
67 to 70 °C | c1ccc(C2OC2c2ccccc2)cc1 (centres undefined)
256 to 257 °C | Cc1nc([N+](=O)[O-])c(Br)[nH]1
238 °C | CCOC(=O)c1nn(-c2ccc(C)cc2)c(C)c1C(=O)C1=NOC2C(=O)N(c3ccc(Br)cc3)C(=O)C12 (centres undefined)
167 °C | CC(C)N(C1=NC(=Cc2ccccc2)C(=O)N1c1ccccc1)C(C)C
-50 °C | C=CC(C)Cl (centres undefined)
238 to 240 °C | O=S1(=O)Cc2cccc3cccc(c23)C1
221 to 227 °C | O=[N+]([O-])c1cc2nccnc2cc1Br
4.5 °C | CCCCCCCC(=O)CCC
52 °C | COc1ccc(C(C)=O)c(F)c1
173 to 175 °C | NNC(=O)c1ccc(Br)cc1Cl
57.5 °C | CCCCCCC=NO
42 to 48 °C | Cc1cccc(CO)c1[N+](=O)[O-]
90 °C | c1ccc(N=Nc2ccc(Nc3ccccc3)cc2)cc1
154 °C | NNC(=O)CC(=O)NN
73 °C | CC(CCC(=O)O)n1nc2ccccc2n1 (centres undefined)
69 °C | Nc1ccc2c(c1)COCO2

SMILES | melting point
Cc1c(COC(=O)C2C(C=C(Cl)C(F)(F)F)C2(C)C)cccc1-c1ccccc1 (centres undefined) | 79.6 °C
CC(=O)OC1CCC2C3CCC4=CC(=O)CCC4(C)C3CCC12C (centres undefined) | 140 °C
CC(Oc1ccc(Oc2ncc(C(F)(F)F)cc2Cl)cc1)C(=O)O (centres undefined) | 108 °C
COc1ccc(C(O)(c2cncnc2)C2CC2)cc1 (centres undefined) | 110 °C
O=[N+]([O-])c1ccc(NN=Cc2cccc3c(Br)ccc([N+](=O)[O-])c23)c([N+](=O)[O-])c1 | 243 to 244 °C
CN1CCC23c4c5ccc(O)c4OC2C(O)CCC3C1C5 (centres undefined) | 157 °C
Cn1nnc2cc(CBr)ccc21 | 120 °C
CC(Br)C(C)Br (centres undefined) | -24 °C
Cc1ccc(N)c(C)c1 | 16 °C
C=CCc1cc(OC)c2c(c1OC)OCO2 | 29.5 °C
CC(C)(C)P(C(C)(C)C)C(C)(C)C | 30 °C
CN(CCCC(=O)c1cccnc1)N=O | 67.5 °C
